Here are results for nine compounds from ChEMBL document CHEMBL1201862, “PubChem BioAssay data set” (2004).

Molecules are shown by their SMILES. Calls of active or inactive are those of the source.

For assay [1], the target named is T1, E3 ubiquitin-protein ligase XIAP (Homo sapiens, UniProt P98170). Put plainly: Counter Screen using XIAP-Bir3 for Chemical Antagonists of Bir1/2 domains of IAP-family anti-apoptotic proteins. [Related pubchem assays (depositor defined):AID1018, AID1449, AID1514, AID1638, AID1749, AID1750, AID488957, AID488963].
In assay [2] the target is T1, E3 ubiquitin-protein ligase XIAP. Put plainly: small molecules displacing peptide from XIAP – biochemical, IAP family, fluorescence polarization (AID 1018). The format is functional.
Assay [3] addresses T2, Alkaline phosphatase, tissue-nonspecific isozyme (Homo sapiens, UniProt P05186).
T2 sequence (P05186 whole entry): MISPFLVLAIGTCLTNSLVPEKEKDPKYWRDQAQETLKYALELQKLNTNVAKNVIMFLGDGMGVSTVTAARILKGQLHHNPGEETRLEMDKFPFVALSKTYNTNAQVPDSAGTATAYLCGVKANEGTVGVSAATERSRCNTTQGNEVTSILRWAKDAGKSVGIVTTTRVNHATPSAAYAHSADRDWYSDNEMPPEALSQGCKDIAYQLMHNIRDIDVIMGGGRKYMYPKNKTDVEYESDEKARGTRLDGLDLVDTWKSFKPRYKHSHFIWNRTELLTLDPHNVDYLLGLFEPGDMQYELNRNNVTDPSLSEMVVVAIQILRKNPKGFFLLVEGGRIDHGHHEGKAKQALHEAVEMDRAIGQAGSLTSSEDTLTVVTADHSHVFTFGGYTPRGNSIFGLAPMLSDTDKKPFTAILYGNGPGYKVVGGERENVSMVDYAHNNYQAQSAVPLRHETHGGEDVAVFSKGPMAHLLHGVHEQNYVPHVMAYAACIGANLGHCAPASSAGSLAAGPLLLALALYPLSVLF
Put plainly: TNAP enzyme inhibition by screening hits, dose response, selectivity assay for mouse IAP inhibitor project, biochemical, human TNAP, uHTS hits (AID 488906). It is filed as functional.

Assay [4] addresses Intestinal-type alkaline phosphatase (Mus musculus, UniProt P24822). Put plainly: PubChem AID 488785. It is filed as functional.
Assay [5] deals with Intestinal-type alkaline phosphatase (Homo sapiens, UniProt P09923). The assay can be described thus: inhibition of human intestinal alkaline phosphatase – biochemical, dose response (AID 488876). The format is functional.
Assay [6] in a line: luciferase reporter signal suppression in cells – H4 neuroglioma cells, luminescence, dose response (AID 1990). It is filed as functional, cell-based.
Assay [7] can be described thus: Luminescence Cell-Based Dose Response HTS to Identify Inhibitors of 5'UTR Stem-Loop Driven Prion Protein mRNA Translation in H4 Neuroglioblastoma Cells. [Related pubchem assays: 1827 (Project Summary), 1813 (Primary HTS)]. It is filed as functional.
A short description of assay [8]: alpha-synuclein stem-loop luciferase translation blockers – H4 neuroglioma cells, luminescence, confirmation (AID 1988). It is filed as functional, cell-based.
For assay [9], the target named is T2, Alkaline phosphatase, tissue-nonspecific isozyme. Put plainly: potency against alkaline phosphatase TNAP – biochemical, luminescent, dose response, SAR follow-up (AID 1056).
Assay [10] concerns the target Glyceraldehyde-3-phosphate dehydrogenase (Homo sapiens, UniProt P04406).
Assay [11] in a line: Trypanosoma cruzi growth suppression in host cells – NIH3T3 host cells, beta-gal luminescence, confirmation (AID 2044).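 Further: intracellular parasites grown in NIH/3T3 mouse fibroblasts as host cells; luminescent beta-galactosidase reporter signal from transgenic T. cruzi replicating inside host cells; inhibitors lower the luminescence signal.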 It is filed as functional, cell-based.
A short description of assay [12]: NIH-3T3 fibroblast cytotoxicity, dose response, cytotoxicity control, cell-based, fluorescence, Alamar Blue, secondary assay (AID 2327).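 Further: NIH-3T3 mouse fibroblasts cultured with fluconazole at 8 µg/mL.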 The format is functional.
The next assay deals with T3, Exodeoxyribonuclease V (Escherichia coli (strain K12), UniProt P04993+P07648+P08394).
T3 sequence (P04993 whole entry): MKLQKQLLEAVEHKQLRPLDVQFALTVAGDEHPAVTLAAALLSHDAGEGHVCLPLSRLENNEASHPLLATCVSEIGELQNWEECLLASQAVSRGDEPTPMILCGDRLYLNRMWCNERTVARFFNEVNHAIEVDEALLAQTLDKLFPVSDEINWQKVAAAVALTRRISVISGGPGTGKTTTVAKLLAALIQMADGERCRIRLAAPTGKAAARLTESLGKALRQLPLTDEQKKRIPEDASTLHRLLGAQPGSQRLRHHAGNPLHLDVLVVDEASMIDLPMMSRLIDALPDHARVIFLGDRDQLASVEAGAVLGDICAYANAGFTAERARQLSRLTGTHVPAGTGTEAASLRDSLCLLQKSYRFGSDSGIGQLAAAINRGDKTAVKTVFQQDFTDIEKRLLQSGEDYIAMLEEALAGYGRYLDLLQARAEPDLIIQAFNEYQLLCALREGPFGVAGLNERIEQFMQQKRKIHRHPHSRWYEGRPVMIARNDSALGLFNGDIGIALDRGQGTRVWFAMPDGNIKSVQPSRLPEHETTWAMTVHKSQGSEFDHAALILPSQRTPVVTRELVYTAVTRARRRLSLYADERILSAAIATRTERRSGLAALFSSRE
T3 sequence (P07648 whole entry): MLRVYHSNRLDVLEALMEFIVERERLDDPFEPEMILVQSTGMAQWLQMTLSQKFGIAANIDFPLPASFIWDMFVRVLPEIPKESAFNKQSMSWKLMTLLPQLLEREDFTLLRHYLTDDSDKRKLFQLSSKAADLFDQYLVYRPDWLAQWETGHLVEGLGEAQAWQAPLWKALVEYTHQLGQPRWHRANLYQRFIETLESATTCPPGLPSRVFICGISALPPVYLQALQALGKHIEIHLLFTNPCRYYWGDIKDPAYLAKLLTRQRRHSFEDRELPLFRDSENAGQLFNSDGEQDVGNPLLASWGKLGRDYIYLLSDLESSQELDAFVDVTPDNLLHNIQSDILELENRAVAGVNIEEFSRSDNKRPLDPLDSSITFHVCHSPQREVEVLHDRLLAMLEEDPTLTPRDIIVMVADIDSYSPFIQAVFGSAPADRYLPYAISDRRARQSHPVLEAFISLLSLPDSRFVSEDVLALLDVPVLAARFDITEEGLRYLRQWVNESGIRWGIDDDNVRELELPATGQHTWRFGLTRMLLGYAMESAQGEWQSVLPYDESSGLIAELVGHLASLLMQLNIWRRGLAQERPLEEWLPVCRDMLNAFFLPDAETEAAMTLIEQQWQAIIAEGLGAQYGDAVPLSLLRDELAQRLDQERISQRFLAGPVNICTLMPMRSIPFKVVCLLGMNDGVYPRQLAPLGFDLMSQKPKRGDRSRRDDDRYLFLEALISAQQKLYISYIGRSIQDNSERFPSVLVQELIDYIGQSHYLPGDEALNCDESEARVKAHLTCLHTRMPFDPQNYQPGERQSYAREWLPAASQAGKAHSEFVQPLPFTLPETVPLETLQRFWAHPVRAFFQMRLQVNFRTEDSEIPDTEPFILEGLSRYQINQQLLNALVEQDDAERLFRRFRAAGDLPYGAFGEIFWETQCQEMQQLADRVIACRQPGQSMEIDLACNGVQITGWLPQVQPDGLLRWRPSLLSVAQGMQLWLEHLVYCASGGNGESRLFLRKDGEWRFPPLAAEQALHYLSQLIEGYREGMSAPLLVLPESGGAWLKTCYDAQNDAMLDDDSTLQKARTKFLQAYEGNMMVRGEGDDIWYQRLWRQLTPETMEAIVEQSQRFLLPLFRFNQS
T3 sequence (P08394 whole entry): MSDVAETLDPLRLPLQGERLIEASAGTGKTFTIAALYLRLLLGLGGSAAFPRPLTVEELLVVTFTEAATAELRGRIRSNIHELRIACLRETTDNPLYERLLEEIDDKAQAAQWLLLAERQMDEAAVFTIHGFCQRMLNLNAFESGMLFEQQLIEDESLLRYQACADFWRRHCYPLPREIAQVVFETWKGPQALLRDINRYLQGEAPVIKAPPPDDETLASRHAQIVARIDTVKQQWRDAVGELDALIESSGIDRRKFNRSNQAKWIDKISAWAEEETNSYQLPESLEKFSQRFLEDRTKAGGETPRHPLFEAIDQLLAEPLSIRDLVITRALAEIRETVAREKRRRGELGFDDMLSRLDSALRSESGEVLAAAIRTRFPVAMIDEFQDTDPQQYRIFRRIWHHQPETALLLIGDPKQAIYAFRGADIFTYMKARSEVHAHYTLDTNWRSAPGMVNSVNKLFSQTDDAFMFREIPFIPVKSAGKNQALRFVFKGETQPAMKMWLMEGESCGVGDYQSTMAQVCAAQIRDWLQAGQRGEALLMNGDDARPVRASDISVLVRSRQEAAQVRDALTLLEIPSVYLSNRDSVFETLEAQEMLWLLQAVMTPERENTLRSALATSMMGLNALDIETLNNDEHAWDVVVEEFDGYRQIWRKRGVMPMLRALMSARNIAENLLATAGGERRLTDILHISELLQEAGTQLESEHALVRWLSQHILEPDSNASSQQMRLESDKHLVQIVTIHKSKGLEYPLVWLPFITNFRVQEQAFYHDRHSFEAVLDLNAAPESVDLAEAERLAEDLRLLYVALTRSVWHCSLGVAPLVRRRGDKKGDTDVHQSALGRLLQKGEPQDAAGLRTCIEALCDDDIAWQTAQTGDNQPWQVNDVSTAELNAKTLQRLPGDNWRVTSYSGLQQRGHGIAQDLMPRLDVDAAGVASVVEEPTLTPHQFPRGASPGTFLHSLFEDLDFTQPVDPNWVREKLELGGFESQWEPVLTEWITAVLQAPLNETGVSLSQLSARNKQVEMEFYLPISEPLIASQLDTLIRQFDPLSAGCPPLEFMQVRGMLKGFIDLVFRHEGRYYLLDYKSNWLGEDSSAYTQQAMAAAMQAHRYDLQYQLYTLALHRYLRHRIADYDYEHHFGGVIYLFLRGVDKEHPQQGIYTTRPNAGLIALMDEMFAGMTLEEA
Put plainly: RecBCD inhibition via phage-restricted bacterial growth – absorbance, V66 E. coli, mutant T4 phage, counter-screen for AddAB inhibitor project, dose response (AID 492957). The format is functional, cell-based, Escherichia coli str. K-12 substr. MG1655.

Assay [13] is described as follows: fluconazole-exposed Candida albicans growth modulators – fluorescence, retest, confirmation (AID 2467). It is filed as functional, cell-based.
The nature of assay [14]: NIH3T3 cell viability loss – ATP luminescence, mouse fibroblasts, counter-screen, dose response (AID 2010).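 Further: cells exposed to compound for about 90 hours before reading.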 It is filed as functional, cell-based.
A short description of assay [15]: Counterscreen for AddAB inhibitors: absorbance-based bacterial cell-based high throughput dose response assay for inhibitors of bacterial viability. [Related pubchem assays (depositor defined):AID435030, AID449728, AID449731, AID488942, AID488955, AID488956]. The format is functional.
Assay [16] deals with Heat shock protein HSP 90-alpha (Homo sapiens, UniProt P07900). It is filed as functional, organism-based.
A further assay has as its system INS1. Put plainly: INS-1E survival protection against cytokine death – cell-based, luminescence, retest, dose response (AID 449756).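 Further: cell death triggered by IL-1 beta plus TNF-alpha plus IFN-gamma mixture; protective hits raise ATP signal compared with cytokine alone wells.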 The format is functional. The following applies: Rattus norvegicus.
Assay [17] can be described thus: cells. It is filed as functional, cell-based.
A short description of assay [18]: HGIII-sPLA2 enzyme inhibition potency – biochemical, QFRET, IC50, dose response (AID 743457).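 Further: green fluorescence rise as the enzyme cleaves BODIPY PC-A2 in liposomes.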
The nature of assay [19]: cells. It is filed as functional, cell-based. This is another data set of the same source.

T1 sequence (P98170 whole entry): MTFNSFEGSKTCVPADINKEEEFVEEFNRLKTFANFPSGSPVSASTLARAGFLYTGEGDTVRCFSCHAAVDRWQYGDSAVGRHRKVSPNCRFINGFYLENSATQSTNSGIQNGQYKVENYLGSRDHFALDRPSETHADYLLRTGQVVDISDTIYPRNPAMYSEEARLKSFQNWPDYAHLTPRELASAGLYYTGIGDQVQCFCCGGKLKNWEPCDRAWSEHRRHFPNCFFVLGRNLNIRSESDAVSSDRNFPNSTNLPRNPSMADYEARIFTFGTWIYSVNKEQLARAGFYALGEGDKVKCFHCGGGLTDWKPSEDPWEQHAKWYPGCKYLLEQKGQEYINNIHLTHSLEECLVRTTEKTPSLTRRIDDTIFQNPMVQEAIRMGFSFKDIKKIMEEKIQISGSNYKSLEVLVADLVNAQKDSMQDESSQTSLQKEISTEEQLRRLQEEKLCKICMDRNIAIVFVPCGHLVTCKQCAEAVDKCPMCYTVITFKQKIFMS
Chain of Intestinal-type alkaline phosphatase (Homo sapiens, UniProt P09923) (P09923 whole entry): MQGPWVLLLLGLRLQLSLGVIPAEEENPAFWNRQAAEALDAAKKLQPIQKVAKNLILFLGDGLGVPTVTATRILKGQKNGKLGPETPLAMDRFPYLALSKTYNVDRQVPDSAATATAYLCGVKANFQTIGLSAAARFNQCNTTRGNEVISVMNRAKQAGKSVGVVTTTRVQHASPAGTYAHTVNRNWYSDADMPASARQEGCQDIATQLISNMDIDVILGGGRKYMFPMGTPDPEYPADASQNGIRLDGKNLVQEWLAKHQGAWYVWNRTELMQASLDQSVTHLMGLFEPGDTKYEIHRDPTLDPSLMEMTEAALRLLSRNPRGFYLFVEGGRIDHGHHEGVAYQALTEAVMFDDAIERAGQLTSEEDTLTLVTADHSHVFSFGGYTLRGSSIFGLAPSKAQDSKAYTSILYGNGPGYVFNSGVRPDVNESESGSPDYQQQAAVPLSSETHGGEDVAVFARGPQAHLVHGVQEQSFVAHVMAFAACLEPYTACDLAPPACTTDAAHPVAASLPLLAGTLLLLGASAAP
Chain of Intestinal-type alkaline phosphatase (Mus musculus, UniProt P24822) (P24822 whole entry): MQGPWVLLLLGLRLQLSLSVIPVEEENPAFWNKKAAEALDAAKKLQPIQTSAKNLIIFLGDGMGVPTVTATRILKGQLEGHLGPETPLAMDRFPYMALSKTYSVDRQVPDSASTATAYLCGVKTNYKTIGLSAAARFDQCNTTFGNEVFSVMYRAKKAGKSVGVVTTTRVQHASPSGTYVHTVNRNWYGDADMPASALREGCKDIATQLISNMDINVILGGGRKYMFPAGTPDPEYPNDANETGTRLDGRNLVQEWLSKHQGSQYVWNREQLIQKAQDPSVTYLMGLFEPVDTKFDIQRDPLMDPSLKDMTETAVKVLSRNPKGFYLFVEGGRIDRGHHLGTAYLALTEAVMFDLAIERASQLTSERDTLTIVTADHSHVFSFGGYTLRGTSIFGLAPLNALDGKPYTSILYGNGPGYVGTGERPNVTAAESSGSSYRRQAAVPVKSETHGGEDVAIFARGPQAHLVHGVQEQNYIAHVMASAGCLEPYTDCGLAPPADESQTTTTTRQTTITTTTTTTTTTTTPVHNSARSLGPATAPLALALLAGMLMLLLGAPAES
Chain of Glyceraldehyde-3-phosphate dehydrogenase (P04406 whole entry): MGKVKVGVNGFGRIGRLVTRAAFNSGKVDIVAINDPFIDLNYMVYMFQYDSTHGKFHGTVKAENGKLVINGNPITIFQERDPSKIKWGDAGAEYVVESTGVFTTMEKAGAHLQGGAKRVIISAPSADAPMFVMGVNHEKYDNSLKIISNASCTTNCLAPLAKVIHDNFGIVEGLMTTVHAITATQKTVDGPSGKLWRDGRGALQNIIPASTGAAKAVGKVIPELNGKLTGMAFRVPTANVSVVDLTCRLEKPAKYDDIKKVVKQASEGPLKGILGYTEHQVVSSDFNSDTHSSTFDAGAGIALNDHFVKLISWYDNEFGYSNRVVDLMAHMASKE

Take `CCN(CC)S(=O)(=O)c1cccc(C(=O)c2c(C)cc3ccccn23)c1`: the IC50 is > 100 µM (inactive) in assay [1] and > 100 µM (not active) in [2].

For the compound `O=C(Nc1cccc(-c2cccc(Cl)c2)c1)C1CCN(C2CCC2)CC1`, the results for the IC50 in [3], in assay [4] and in assay [5] were 11.8 µM (active), 9.39 µM (active) and 8.64 µM (active), respectively.

Turning to `CC(C)C(c1nnnn1C(C)(C)C)N1CCC(Cc2ccccc2)CC1` (stereo not drawn), the IC50 is > 100 µM (inactive) in assay [1] and > 100 µM (not active) in assay [2].

As to `O=C(c1cc(-n2cnnc2)ccc1Cl)N1CCN(c2nc(-c3ccccc3)cs2)CC1`, the IC50 was > 100 µM (inactive) in assay [1] and > 100 µM (not active) in assay [2]. Moreover, the values for the EC50 in assay [6], in assay [7] and in [8] were > 30 µM (not active), 15.1 µM (active) and > 120 µM (not active), respectively.

With `O=C1[C@H]2CCCC[C@H]2C(=O)N1c1nnc(Cc2ccc(F)cc2)[nH]1`, the results for the IC50 in assay [9] and in [10] were 10.2 µM (active) and > 100 µM (not active), respectively.

Regarding `O=C(NCCCCc1ccccc1)NC[C@@H]1CC[C@@H](Cc2ccc(-c3ccccc3)cc2)O1`, the results for the IC50 in [3], in assay [4] and in assay [5] were 15.6 µM (active), 2.6 µM (active) and 2.1 µM (active), respectively.

As to `C=CCc1cccc(/C=N/NC(=O)CNc2ccccc2OC)c1O`, the EC50 was 2.01 µM (active) in assay [11], > 160 µM (inactive) in [12], > 38 µM (not active) in assay [13] and 7.37 µM (active) in assay [14]. The IC50 (on Exodeoxyribonuclease V; in [15]) was > 119 µM (inactive) each time.

With `CCCCC(=O)NC(c1cccs1)c1cc(Cl)c2cccnc2c1O` (stereo not drawn), the IC50 is > 119 µM (inactive) at Exodeoxyribonuclease V, > 122 µM (inactive) in [18] and > 119 µM (inactive) in assay [15]. For the same compound, the AC50 in assay [16] is 3.6 µM (active); in the assay with INS1, 1.19 µM (active). Further, the EC50 is 57.5 µM (active) in the assay “cells [17]” and > 350 µM (not active) in “cells [19]”.

`Cc1ccc(CN2C3CCCC2CC(NC(=O)Nc2cccc(F)c2)C3)cc1` (stereo not drawn): the IC50 in assay [3] was 63.3 µM (active); in assay [4], 9.9 µM (active); in assay [5] it was > 100 µM (inactive).
